Source: PMC5976239 (Journal of medicinal chemistry, 2017)
Converted amounts (≈) assume the structure as drawn.

Assays:
[1] = tested on: C. albicans ATCC MYA-1237(R) (F); assay: MIC determination by in vitro antifungal assay; assay type: cell-based; details: Candida albicans, 48 h, read-out: MIC (MIC-0)
[2] = tested on: C. albicans ATCC MYA-2876(S) (C); assay: MIC determination by in vitro antifungal assay; assay type: cell-based; details: Candida albicans, 48 h, read-out: MIC (MIC-0)
[3] = tested on: C. albicans ATCC MYA-2310(S) (E); assay: MIC determination by in vitro antifungal assay; assay type: cell-based; details: Candida albicans, 48 h, read-out: MIC (MIC-0)
[4] = tested on: Aspergillus flavus ATCC MYA-3631 (K); assay: MIC determination against filamentous fungi; assay type: cell-based; details: 48 h, read-out: MIC (MIC-0)
[5] = tested on: Aspergillus nidulans ATCC 38163 (L); assay: MIC determination against filamentous fungi; assay type: cell-based; details: ATCC38163, 48 h, read-out: MIC (MIC-0)
[6] = tested on: C. albicans ATCC 64124(R) (B); assay: MIC determination by in vitro antifungal assay; assay type: cell-based; details: Candida albicans, ATCC64124, 48 h, read-out: MIC (MIC-0)
[7] = tested on: C. albicans ATCC 90819(R) (D); assay: MIC determination by in vitro antifungal assay; assay type: cell-based; details: Candida albicans, ATCC90819, 48 h, read-out: MIC (MIC-0)
[8] = tested on: Candida albicans ATCC 10231 (A); assay: MIC determination by in vitro antifungal assay; assay type: cell-based; details: ATCC10231, 48 h, read-out: MIC (MIC-0)
[9] = tested on: Aspergillus terreus ATCC MYA-3633 (M); assay: MIC determination against filamentous fungi; assay type: cell-based; details: 48 h, read-out: MIC (MIC-0)
[10] = tested on: C. albicans, non-albicans Candida, and Aspergillus strains; assay: Antifungal activity over the panel of 13 fungal strains; assay type: cell-based; details: overall, fungal strains tested (27 except strains K and L)
[11] = tested on: C. albicans ATCC MYA-1003(R) (G); assay: MIC determination by in vitro antifungal assay; assay type: cell-based; details: Candida albicans, 48 h, read-out: MIC (MIC-0)
Hemolytic activity assay = assay type: cell-based; details: mouse, murine red blood cells (mRBCs)
[12] = tested on: C. albicans ATCC 64124 (strain B) biofilms; assay: Biofilm assay
[13] = tested on: Candida albicans ATCC 10231 (A); assay: MIC determination in the presence and absence of FBS; assay type: cell-based; details: strains A, J, and L; +10% FBS versus no FBS

SMILES	MIC [1] [µg/mL]	MIC [2] [µg/mL]	MIC [3] [µg/mL]	MIC [4] [µg/mL]	MIC [5] [µg/mL]	MIC [6] [µg/mL]	MIC [7] [µg/mL]	MIC [8] [µg/mL]	MIC [9] [µg/mL]	antifungal activity (in words) [10]	MIC [11] [µg/mL]	hemolysis at 60 min, 62.5 µg/mL (Hemolytic activity assay) [%]	hemolysis at 60 min, 7.8 µg/mL (Hemolytic activity assay) [%]	increase in MIC in biofilms (SMIC50 and SMIC80 versus MIC in liquid cultures) [12]	antifungal activity in the presence of FBS (in words) [13]
Fc1ccc(C2(Cn3cncn3)CO2)c(F)c1 (stereo not drawn) [Compound 14, 1-[[2-(2,4-Difluorophenyl)-2-oxiranyl]methyl]-1H-1,2,4-triazole]	> 31.3	> 31.3	> 31.3	> 31.3	> 31.3	> 31.3	> 31.3	> 31.3	> 31.3	inactivity	> 31.3				
CN1CCN(CC(O)(Cn2cncn2)c2ccc(F)cc2F)CC1 (stereo not drawn) [Compound 16]	31.3 (≈ 92.8 µM)	7.8 (≈ 23.1 µM)	7.8 (≈ 23.1 µM)	31.3 (≈ 92.8 µM)	0.975 (≈ 2.89 µM)	31.3 (≈ 92.8 µM)	31.3 (≈ 92.8 µM)	7.8 (≈ 23.1 µM)	31.3 (≈ 92.8 µM)		31.3 (≈ 92.8 µM)	< 10			
CCCCCN1CCN(CC(O)(Cn2cncn2)c2ccc(F)cc2F)CC1 (stereo not drawn) [Compound 17, 2-(2,4-Difluorophenyl)-1-(1H-1,2,4-triazol-1-yl)-3-(4-pentylpiperazine)propan-2-ol]	> 31.3	> 31.3	> 31.3	> 31.3	> 31.3	> 31.3	31.3 (≈ 79.5 µM)	> 31.3	> 31.3	basically inactive	> 31.3				
CCCCCCCCCN1CCN(CC(O)(Cn2cncn2)c2ccc(F)cc2F)CC1 (stereo not drawn) [Compound 19, 2-(2,4-Difluorophenyl)-1-(1H-1,2,4-triazol-1-yl)-3-(4-nonylpiperazine)propan-2-ol]	15.6 (≈ 34.7 µM)	3.9 (≈ 8.67 µM)	15.6 (≈ 34.7 µM)	0.48 (≈ 1.07 µM)	0.975 (≈ 2.17 µM)	7.8 (≈ 17.3 µM)	7.8 (≈ 17.3 µM)	0.975 (≈ 2.17 µM)	1.95 (≈ 4.34 µM)		15.6 (≈ 34.7 µM)				
CCCCCCCCCCCN1CCN(CC(O)(Cn2cncn2)c2ccc(F)cc2F)CC1 (stereo not drawn) [Compound 21, 2-(2,4-Difluorophenyl)-1-(1H-1,2,4-triazol-1-yl)-3-(4-undecylpiperazine)propan-2-ol]	15.6 (≈ 32.7 µM)	7.8 (≈ 16.3 µM)	15.6 (≈ 32.7 µM)	1.95 (≈ 4.08 µM)	1.95 (≈ 4.08 µM)	15.6 (≈ 32.7 µM)	15.6 (≈ 32.7 µM)	1.95 (≈ 4.08 µM)	1.95 (≈ 4.08 µM)		15.6 (≈ 32.7 µM)				
CCCCCCCCCCCCCN1CCN(CC(O)(Cn2cncn2)c2ccc(F)cc2F)CC1 (stereo not drawn) [Compound 23, 2-(2,4-Difluorophenyl)-1-(1H-1,2,4-triazol-1-yl)-3-(4-tridecylpiperazine)propan-2-ol]		1.95 (≈ 3.86 µM)		0.975 (≈ 1.93 µM)	0.975 (≈ 1.93 µM)	7.8 (≈ 15.4 µM)	1.95 (≈ 3.86 µM)	1.95 (≈ 3.86 µM)	0.975 (≈ 1.93 µM)						
CCCCCCCCCCCCCCN1CCN(CC(O)(Cn2cncn2)c2ccc(F)cc2F)CC1 (stereo not drawn) [Compound 24, 2-(2,4-Difluorophenyl)-1-(1H-1,2,4-triazol-1-yl)-3-(4-tetradecylpiperazine)propan-2-ol]	3.9 (≈ 7.5 µM)	7.8 (≈ 15 µM)	3.9 (≈ 7.5 µM)	0.48 (≈ 0.924 µM)	1.95 (≈ 3.75 µM)	31.3 (≈ 60.2 µM)	1.95 (≈ 3.75 µM)	1.95 (≈ 3.75 µM)	0.975 (≈ 1.88 µM)		1.95 (≈ 3.75 µM)		> 50		
CCCCCCCCCCN1CCN(CC(O)(Cn2cncn2)c2ccc(Cl)cc2Cl)CC1 (stereo not drawn) [Compound 25, 2-(2,4-Dichlorophenyl)-1-(1H-1,2,4-triazol-1-yl)-3-(4-decylpiperazine)propan-2-ol]	7.8 (≈ 15.7 µM)	7.8 (≈ 15.7 µM)	7.8 (≈ 15.7 µM)								7.8 (≈ 15.7 µM)		22	1–2 fold	retained their full antifungal activity
OC(CN1CCOCC1)(Cn1cncn1)c1ccc(F)cc1F (stereo not drawn) [Compound 27, 2-(2,4-Difluorophenyl)-1-(1H-1,2,4-triazol-1-yl)-3-(mopholine)-propan-2-ol]	> 31.3	> 31.3	7.8 to 31.3 (≈ 24 to 96.5 µM)		1.95 (≈ 6.01 µM)	> 31.3	3.9 to 31.3 (≈ 12 to 96.5 µM)	> 31.3	15.6 (≈ 48.1 µM)	inactive	31.3 (≈ 96.5 µM)				
OC(CNCCN1CCOCC1)(Cn1cncn1)c1ccc(F)cc1F (stereo not drawn) [Compound 28, 2-(2,4-Difluorophenyl)-1-(1H-1,2,4-triazol-1-yl)-3-(4-(2-aminoethyl)morpholine)propan-2-ol]	31.3 (≈ 85.2 µM)	31.3 (≈ 85.2 µM)	> 31.3	> 31.3	> 31.3	31.3 (≈ 85.2 µM)	> 31.3	31.3 (≈ 85.2 µM)	> 31.3	inactive	> 31.3				
